Each structure is given as a SMILES string. Counter-ions that a name gives are not always drawn.

What is called inhibition is how much of the control response was suppressed.

The test concerns the target T1, TAFIa (Homo sapiens, UniProt Q96IY4).
T1 sequence (Q96IY4 115-423): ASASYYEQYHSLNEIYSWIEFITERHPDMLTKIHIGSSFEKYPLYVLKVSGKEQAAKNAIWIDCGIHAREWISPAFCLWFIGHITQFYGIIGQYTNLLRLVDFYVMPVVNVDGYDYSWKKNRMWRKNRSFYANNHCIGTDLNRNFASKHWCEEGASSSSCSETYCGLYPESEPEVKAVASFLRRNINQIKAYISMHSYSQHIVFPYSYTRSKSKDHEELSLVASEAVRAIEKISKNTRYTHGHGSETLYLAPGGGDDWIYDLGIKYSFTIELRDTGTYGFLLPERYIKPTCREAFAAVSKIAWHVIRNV
As to the kind of experiment: Inhibition of TAFIa (hippuryl-Arg test). Type of test: biochemical. To be noted: TAFIa 2 nM, hippuryl-arginine 5 mM, 45 minutes, relative to control containing the carrier; for inhibition at 0.01 µM: compound at 10 nM; for inhibition at 0.02 µM: compound at 20 nM. In a few lines:
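TAFI (4 nM) activated 20 min by thrombin/thrombomodulin with 10 mM calcium, stopped with PPACK; TAFIa (2 nM) then incubated 45 min with compound and 5 mM hippuryl-arginine in Hepes buffer, pH 7.4, 28 °C. Absorbance at 405 nm, blank-corrected; % inhibition versus carrier at 10 and 20 nM.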

On to `NCCCC[C@@]1(C(=O)O)CN(Cc2ccccc2-c2ccc(O)nc2)CCP1(=O)O` [Example 240, (3S)-3-(4-AMINOBUTYL)-4-HYDROXY-1-[[2-(6-HYDROXYPYRIDIN-3-YL)PHENYL]METHYL]-4-OXO-1,4-AZAPHOSPHINANE-3-CARBOXYLIC ACID], for which testing at 0.01 µM gave an inhibition of 66% and the inhibition at 0.02 µM stood at 80%.
Regarding `NCCCC[C@@]1(C(=O)O)CN(Cc2ccc(F)cc2-c2ccc(O)nc2)CCP1(=O)O` [Example 241, (3S)-3-(4-AMINOBUTYL)-1-[[4-FLUORO-2-(6-HYDROXYPYRIDIN-3-YL)PHENYL]-METHYL]-4-HYDROXY-4-OXO-1,4-AZAPHOSPHINANE-3-CARBOXYLIC ACID], at 0.01 µM the inhibition was 77% and the inhibition at 0.02 µM worked out at 91%.
On the same counts, the results for `COc1ccc(-c2cc(O)ccc2CN2CCP(=O)(O)[C@](CCCCN)(C(=O)O)C2)cn1` [Example 242, (3S)-3-(4-AMINOBUTYL)-4-HYDROXY-1-[[4-HYDROXY-2-(6-METHOXYPYRIDIN-3-YL)PHENYL]METHYL]-4-OXO-1,4-AZAPHOSPHINANE-3-CARBOXYLIC ACID] are 75% and 88%.
On the same counts, the results for `COc1cccc(-c2cc(F)ccc2CN2CCP(=O)(O)[C@](CCCCN)(C(=O)O)C2)n1` [Example 244, (3S)-3-(4-AMINOBUTYL)-1-[[4-FLUORO-2-(6-METHOXYPYRIDIN-2-YL)PHENYL]-METHYL]-4-HYDROXY-4-OXO-1,4-AZAPHOSPHINANE-3-CARBOXYLIC ACID] are 49% and 68%.
In turn, `NCCCC[C@@]1(C(=O)O)CN(Cc2ccc(F)cc2-c2nccs2)CCP1(=O)O` [Example 245, (3S)-3-(4-AMINOBUTYL)-1-[[4-FLUORO-2-(1,3-THIAZOL-2-YL)PHENYL]METHYL]-4-HYDROXY-4-OXO-1,4-AZAPHOSPHINANE-3-CARBOXYLIC ACID] had an inhibition at 0.01 µM of 38% and an inhibition at 0.02 µM of 52%.
In turn, `Cn1cncc1-c1cc(O)ccc1CN1CCP(=O)(O)[C@](CCCCN)(C(=O)O)C1` [Example 246, (3S)-3-(4-Aminobutyl)-4-hydroxy-1-[[4-hydroxy-2-(3-methylimidazol-4-yl)phenyl]methyl]-4-oxo-1,4-azaphosphinane-3-carboxylic acid, hydrobromide] returned an inhibition at 0.01 µM of 72% and an inhibition at 0.02 µM of 86%.
The compound `Cn1nccc1-c1cc(O)ccc1CN1CCP(=O)(O)[C@](CCCCN)(C(=O)O)C1` [Example 247, (3S)-3-(4-AMINOBUTYL)-4-HYDROXY-1-[[4-HYDROXY-2-(2-METHYLPYRAZOL-3-YL)PHENYL]METHYL]-4-OXO-1,4-AZAPHOSPHINANE-3-CARBOXYLIC ACID] showed an inhibition at 0.01 µM of 85% and an inhibition at 0.02 µM of 89%.
In the same order, the values of `COc1ccc(-c2ccccc2CN2CCP(=O)(O)[C@](CCCCN)(C(=O)O)C2)cc1OC` [Example 248, (3S)-3-(4-AMINOBUTYL)-1-[[2-(3,4-DIMETHOXYPHENYL)PHENYL]METHYL]-4-HYDROXY-4-OXO-1,4-AZAPHOSPHINANE-3-CARBOXYLIC ACID] are 87% and 95%.
On the same counts, the results for `Cc1ncc(-c2cc(O)ccc2CN2CCP(=O)(O)[C@](CCCCN)(C(=O)O)C2)n1C` [Example 249, (3S)-3-(4-AMINOBUTYL)-1-[[2-(2,3-DIMETHYLIMIDAZOL-4-YL)-4-HYDROXYPHENYL]METHYL]-4-HYDROXY-4-OXO-1,4-AZAPHOSPHINANE-3-CARBOXYLIC ACID] are 88% and 94%.
In the same order, the values of `Cc1ncc(-c2ccccc2CN2CCP(=O)(O)[C@](CCCCN)(C(=O)O)C2)n1C` [Example 250, (3S)-3-(4-AMINOBUTYL)-1-[[2-(2,3-DIMETHYLIMIDAZOL-4-YL)PHENYL]-METHYL]-4-HYDROXY-4-OXO-1,4-AZAPHOSPHINANE-3-CARBOXYLIC ACID] are 88% and 97%.
With `NCCCC[C@@]1(C(=O)O)CN(Cc2ccc(F)cc2-c2ccc(F)c(O)c2)CCP1(=O)O` [Example 251, (3S)-3-(4-AMINOBUTYL)-1-[[4-FLUORO-2-(4-FLUORO-3-HYDROXYPHENYL)-PHENYL]METHYL]-4-HYDROXY-4-OXO-1,4-AZAPHOSPHINANE-3-CARBOXYLIC ACID], at 0.01 µM the inhibition was 70% and 0.02 µM produced 90% inhibition.
In the case of `NCCCC[C@@]1(C(=O)O)CN(Cc2ccccc2-c2ccncc2)CCP1(=O)O` [Example 252, (3S)-3-(4-AMINOBUTYL)-4-HYDROXY-4-OXO-1-[(2-PYRIDIN-4-YLPHENYL)-METHYL]-1,4-AZAPHOSPHINANE-3-CARBOXYLIC ACID], at 0.01 µM the inhibition was 76% and the inhibition at 0.02 µM turned out to be 90%.

The values are drawn from patent publication US10138260B2, “Compounds of phosphinanes and azaphosphinanes, a process for their preparation and pharmaceutical compositions containing them” (LES LABORATOIRES SERVIER, priority 2016, dated 2018).
